According to ChEMBL document CHEMBL3784999, “Investigation of 4-amino-5-alkynylpyrimidine-2(1H)-ones as anti-mycobacterial agents” (Bioorg Med Chem, 2016):
In brackets after ≈: the same amount, converted by molar mass.

Test system: Mycobacterium tuberculosis
Experiment: Antimycobacterial activity against Mycobacterium bovis BCG assessed as inhibition of mycobacterial replication after 6 days by microplate Alamar blue assay
Format: functional
Conditions: variant bovis BCG, 144 h

Compound | MIC50 | MIC90
CCCCCCCCC#Cc1c[nH]c(=O)nc1N | 50 µg/mL (≈ 202 µM) | –
CCCCCC#Cc1c[nH]c(=O)nc1N | 12.5 µg/mL (≈ 60.9 µM) | –
Nc1nc(=O)[nH]cc1C#Cc1ccccc1 | 25 µg/mL (≈ 118 µM) | –
CO[C@H]1/C=C/O[C@@]2(C)Oc3c(C)c(O)c4c(O)c(c(/C=N/N5CCN(C)CC5)c(O)c4c3C2=O)NC(=O)/C(C)=C\C=C\[C@H](C)[C@H](O)[C@@H](C)[C@@H](O)[C@@H](C)[C@H](OC(C)=O)[C@@H]1C [RIFAMPIN] | – | 1 µg/mL (≈ 1.22 µM)
